According to paper PMC7489219 (Molecular Brain, 2020):
Counter-ions that a name gives are not always drawn.

What follows are compounds tested on T1, primary mouse cortical neurons (assay: cells). Conditions: Cortical neurone, 20 h, read-out: % inhibition, inhibition of NMDA-induced cell death (protection score), 30 min pre-treatment.
T1 construct: primary cortical neurons, DIV 10
Set-up: Protection from NMDA-induced (30 uM, 10 min) neuronal death; Hoechst nuclear morphology by automated microscopy
Summary of the method: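 On DIV 10, primary mouse cortical neurons were given compound at 10 μM for 30 min at 37 °C, then 30 μM NMDA for 10 min, washed, and kept 20 h with compound. Dead cells were scored by nuclear morphology, and % protection was derived from survival relative to vehicle + NMDA and untreated controls.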
In the case of Nc1ncnc2c1ncn2[C@@H]1O[C@H](COP(=O)(O)OP(=O)(O)OP(=O)(O)O)[C@@H](O)[C@H]1O [ATP (Adenosine-Triphosphate)], the inhibition at 10 µM is reported as 0.248%.
With COc1ccc2[nH]c([S@@+]([O-])Cc3ncc(C)c(OC)c3C)nc2c1 [Esomeprazole sodium (Nexium)] the inhibition at 10 µM was 21.3%.
CN1CCN(c2c(F)cc3c(=O)c(C(=O)O)cn(CCF)c3c2F)CC1 [Fleroxacin (Quinodis)] showed an inhibition at 10 µM of -8.01%.
For C[N+](C)(C)CC(O)CC(=O)[O-] (racemic) [DL-Carnitine hydrochloride], the inhibition at 10 µM was 2.11%.
In the case of C[C@@](Cc1ccc(O)c(O)c1)(NN)C(=O)O [Carbidopa], the inhibition at 10 µM is reported as -2.32%.
In the case of Cc1coc2c1C(=O)C(=O)c1c-2ccc2c(C)cccc12 [Tanshinone I], the inhibition at 10 µM is reported as -5.27%.
NC(=O)c1cn(Cc2c(F)cccc2F)nn1 [Rufinamide (Banzel)] showed an inhibition at 10 µM of -3.11%.
In the case of Cc1coc2c1C(=O)C(=O)c1c-2ccc2c1CCCC2(C)C [Tanshinone IIA (Tanshinone B)], the inhibition at 10 µM is reported as 3.42%.
N[C@@H](Cc1ccc(O)c(O)c1)C(=O)O [Levodopa (Sinemet)] showed an inhibition at 10 µM of 0.209%.
Work on CC[C@H]1OC(=O)[C@H](C)[C@@H](O[C@H]2C[C@@](C)(OC)[C@@H](O)[C@H](C)O2)[C@H](C)[C@@H](O[C@@H]2O[C@H](C)C[C@H](N(C)C)[C@H]2O)[C@](C)(O)C[C@@H](C)C(=O)[C@H](C)[C@@H](O)[C@]1(C)O [Erythromycin (E-Mycin)] yielded an inhibition at 10 µM of 29.4%.
Work on COc1cc2c(cc1OC)-c1cc3ccc(OC)c(OC)c3c[n+]1CC2 [Palmatine chloride] yielded an inhibition at 10 µM of 8.5%.
Cc1cnc(C(=O)O)c[n+]1[O-] [Acipimox] gave an inhibition at 10 µM of -0.00389%.
With CCCC(=O)O [Sodium butyrate] the inhibition at 10 µM was 0.412%.
CCC[C@H](N[C@@H](C)C(=O)N1[C@H](C(=O)O)C[C@@H]2CCCC[C@@H]21)C(=O)OCC [Perindopril Erbumine (Aceon)] showed an inhibition at 10 µM of -1.31%.
Work on COc1c2occc2cc2ccc(=O)oc12 [Methoxsalen (Oxsoralen)] yielded an inhibition at 10 µM of -4.76%.
Work on C=C[C@H]1CN2CC[C@H]1C[C@H]2[C@H](O)c1ccnc2ccc(OC)cc12 [Quinine hydrochloride dihydrate] yielded an inhibition at 10 µM of -0.947%.
For O=C(O)c1cc(=O)[nH]c(=O)[nH]1 [Orotic acid (6-Carboxyuracil)], the inhibition at 10 µM was -3.32%.
Compound CNS(=O)(=O)Cc1ccc2[nH]cc(CCN(C)C)c2c1 [Sumatriptan succinate] has an inhibition at 10 µM of 8.05%.
In the case of O=P(O)(O)C(O)(Cn1ccnc1)P(=O)(O)O [Zoledronic Acid (Zoledronate)], the inhibition at 10 µM is reported as -0.211%.
Compound O=c1c(O)c(-c2ccc(O)cc2O)oc2cc(O)cc(O)c12 [Morin hydrate (Aurantica)] has an inhibition at 10 µM of -2.71%.
CN(C)CCCN1c2ccccc2Sc2ccc(Cl)cc21 [Chlorpromazine (Sonazine)] was tested, and the inhibition at 10 µM was -4.78%.
O=C(O)C1=C[C@@H](O)[C@@H](O)[C@H](O)C1 [Shikimic acid (Shikimate)] gave an inhibition at 10 µM of 0.278%.
Compound C[C@]12C=CC(=O)N[C@@H]1CC[C@@H]1[C@@H]2CC[C@]2(C)[C@@H](C(=O)Nc3cc(C(F)(F)F)ccc3C(F)(F)F)CC[C@@H]12 [Dutasteride] has an inhibition at 10 µM of 113%.
Nc1nc(F)nc2c1ncn2[C@@H]1O[C@H](COP(=O)(O)O)[C@@H](O)[C@@H]1O [Fludarabine Phosphate (Fludara)] was tested, and the inhibition at 10 µM was -10.8%.
CCOC(=O)O[C@]1(C(=O)OCCl)CC[C@H]2[C@@H]3CCC4=CC(=O)C=C[C@]4(C)[C@H]3[C@@H](O)C[C@@]21C [Loteprednol Etabonate] gave an inhibition at 10 µM of 30.7%.
CCN(CC)CC(=O)Nc1c(C)cccc1C [Lidocaine (Alphacaine)] gave an inhibition at 10 µM of -8.6%.
In the case of CC(C)(C)C(=O)OCOP(=O)(COCCn1cnc2c(N)ncnc21)OCOC(=O)C(C)(C)C [Adefovir Dipivoxil (Preveon, Hepsera)], the inhibition at 10 µM is reported as 18.8%.
With CNC(=O)c1cc(Oc2ccc(NC(=O)Nc3ccc(Cl)c(C(F)(F)F)c3)cc2)ccn1 [Sorafenib (Nexavar)] the inhibition at 10 µM was -5.2%.
With N[C@@H](CSCCCO)C(=O)O [Fudosteine] the inhibition at 10 µM was 7.72%.
Work on COc1cc2c(cc1OC)[C@@H]1Cc3ccc(OC)c(OC)c3CN1CC2 [Rotundine] yielded an inhibition at 10 µM of -0.337%.
With CCC(C)(C)C(=O)O[C@H]1C[C@@H](C)C=C2C=C[C@H](C)[C@H](CC[C@@H]3C[C@@H](O)CC(=O)O3)[C@H]21 [Simvastatin (Zocor)] the inhibition at 10 µM was 2.21%.
CCCCN1CCCCC1C(=O)Nc1c(C)cccc1C (stereo not drawn) [Bupivacaine hydrochloride (Marcain)] gave an inhibition at 10 µM of -1.92%.
Work on COc1ccc(Cl)cc1C(=O)NCCc1ccc(S(=O)(=O)NC(=O)NC2CCCCC2)cc1 [Glyburide (Diabeta)] yielded an inhibition at 10 µM of 0.906%.
With O=C(N[C@H](CO)[C@H](O)c1ccc([N+](=O)[O-])cc1)C(Cl)Cl [Chloramphenicol (Chloromycetin)] the inhibition at 10 µM was 0.272%.
For NC(=O)c1ncn([C@@H]2O[C@H](CO)[C@@H](O)[C@H]2O)c1N [Acadesine], the inhibition at 10 µM was 4.99%.
For CN1[C@@H]2CC[C@H]1CC(OC(=O)C(CO)c1ccccc1)C2 (stereo partly drawn) [Atropine], the inhibition at 10 µM was 9.73%.
C=C[C@H]1CN2CC[C@H]1C[C@H]2[C@H](O)c1ccnc2ccccc12 [Cinchonidine] gave an inhibition at 10 µM of -3.04%.
In the case of OCCOCCN1CCN(C2=Nc3ccccc3Sc3ccccc32)CC1 [Quetiapine fumarate (Seroquel)], the inhibition at 10 µM is reported as 0.552%.
Work on COc1c(O)cc2c(c1O)[C@@H]1O[C@H](CO)[C@@H](O)[C@H](O)[C@H]1OC2=O [Bergenin (Cuscutin)] yielded an inhibition at 10 µM of 1.66%.
For O=C(c1ccccc1)c1ccc2n1CCC2C(=O)O (stereo not drawn) [Ketorolac (Toradol)], the inhibition at 10 µM was 37.4%.
With N#Cc1ccc(C(c2ccc(C#N)cc2)n2cncn2)cc1 [Letrozole] the inhibition at 10 µM was 0.34%.
Work on CC(O)(CS(=O)(=O)c1ccc(F)cc1)C(=O)Nc1ccc(C#N)c(C(F)(F)F)c1 (stereo not drawn) [Bicalutamide (Casodex)] yielded an inhibition at 10 µM of -3.38%.
CC(NC(C)(C)C)C(=O)c1cccc(Cl)c1 (stereo not drawn) [Amfebutamone (Bupropion)] gave an inhibition at 10 µM of 2.08%.
N=C(N)NC(=N)N1CCOCC1 [Moroxydine] gave an inhibition at 10 µM of 0.926%.
For C=C1C[C@@]2(O)O[C@@]3(C[C@H]2C(C)C)[C@@H](C)CC[C@@H]13 [Curcumol], the inhibition at 10 µM was 7.41%.
CN1C(C(=O)Nc2ccccn2)=C(O)c2ccccc2S1(=O)=O [Piroxicam (Feldene)] gave an inhibition at 10 µM of 4.8%.
With CC[C@H](/C=C/[C@@H](C)[C@H]1CC[C@H]2[C@@H]3CC=C4C[C@@H](O)CC[C@]4(C)[C@H]3CC[C@]12C)C(C)C [Stigmasterol (Stigmasterin)] the inhibition at 10 µM was 4.26%.
For Nc1nc(=O)[nH]cc1F [Flucytosine (Ancobon)], the inhibition at 10 µM was 3.84%.
C[C@]12CC[C@H]3[C@@H](CC[C@@]45O[C@@H]4C(O)=C(C#N)C[C@]35C)[C@@H]1CC[C@@H]2O [Trilostane] showed an inhibition at 10 µM of 4.15%.
O=C(O)/C=C/c1ccc(O)c(O)c1 [Caffeic acid] gave an inhibition at 10 µM of -2.37%.
Work on CO[C@H]1O[C@@H]2O[C@@]3(C)CC[C@H]4[C@H](C)CC[C@@H]([C@H]1C)[C@@]24OO3 [Artemether (SM-224)] yielded an inhibition at 10 µM of 1.03%.
Nc1ccc(S(N)(=O)=O)cc1 [Sulfanilamide] showed an inhibition at 10 µM of 17.7%.
OC[C@@H](O)[C@@H](O)[C@H](O)[C@@H](O)CO [Sorbitol (Glucitol)] gave an inhibition at 10 µM of 3.24%.
For CN1c2ccccc2C(=O)N2CCc3c([nH]c4ccccc34)[C@H]21 [Evodiamine (Isoevodiamine)], the inhibition at 10 µM was 0.0207%.
